From ChEMBL document CHEMBL1201862, “PubChem BioAssay data set” (2004)
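Exposure lasted 48 hours, with cells grown in 96-well plates and compounds tested at five concentrations. The concentration for 50% growth inhibition is given as GI50.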 Calls of active or inactive are those of the source. Cut-off read from the data, not from the text of the source: active = GI50 up to about 1.1 µM and inactive = higher.

Assays:
Test in all cases: DTP human tumour cell line panel, 48 h
HT-29 = test system: HT-29
EKVX = test system: EKVX
U-251 = test system: U-251
UACC-62 = test system: UACC-62
MOLT-4 = test system: MOLT-4
SK-MEL-28 = test system: SK-MEL-28
BT-549 = test system: BT-549
HCT-15 = test system: HCT-15
SNB-75 = test system: SNB-75
MDA-N = test system: MDA-N
OVCAR-8 = test system: OVCAR-8
CAKI-1 = test system: CAKI-1
HOP-92 = test system: HOP-92
HOP-62 = test system: HOP-62
K562 = test system: K562
COLO 205 = test system: COLO 205
DU-145 = test system: DU-145
NCI-H522 = test system: NCI-H522

Structure (SMILES) | GI50 (HT-29) | GI50 (EKVX) | GI50 (U-251) | GI50 (UACC-62) | GI50 (MOLT-4) | GI50 (SK-MEL-28) | GI50 (BT-549) | GI50 (HCT-15) [µM] | GI50 (SNB-75) | GI50 (MDA-N) | GI50 (OVCAR-8) | GI50 (CAKI-1) | GI50 (HOP-92) | GI50 (HOP-62) | GI50 (K562) | GI50 (COLO 205) | GI50 (DU-145) | GI50 (NCI-H522)
CCN1C(=O)c2ccccc2C1(O)c1ccc(Cl)cc1 (stereo unspecified) | 41.9 µM (inactive) | 33.3 µM (inactive) | 64.9 µM (inactive) | 79.1 µM (inactive) | 47.3 µM (inactive) | 94 µM (inactive) | > 100 µM (inactive) | > 100 | > 10 µM (inactive) | > 100 µM (inactive) | 52.8 µM (inactive) | > 100 µM (inactive) | > 100 µM (inactive) | 78 µM (inactive) | > 100 µM (inactive) | 35.6 µM (inactive) | 80.2 µM (inactive) | –
COc1cccc(C2c3cc4c(cc3OC3COC(=O)C32)OCO4)c1OC (stereo unspecified) | > 100 µM (inactive) | > 100 µM (inactive) | – | 68.2 µM (inactive) | > 100 µM (inactive) | > 100 µM (inactive) | > 100 µM (inactive) | 34.8 | 83.9 µM (inactive) | 3.93 µM (inactive) | > 100 µM (inactive) | 37.6 µM (inactive) | 99.8 µM (inactive) | 61.1 µM (inactive) | – | > 100 µM (inactive) | > 100 µM (inactive) | –
C[C@]1(O)O[C@@H]2OCC[C@@H]2C2=C1C(=O)c1ccccc1C2=O | 29.9 µM (inactive) | 20 µM (inactive) | 15.2 µM (inactive) | 19.2 µM (inactive) | 5.04 µM (inactive) | 29.4 µM (inactive) | – | 19 | 29.6 µM (inactive) | 6.15 µM (inactive) | 15.3 µM (inactive) | 20.1 µM (inactive) | 12.8 µM (inactive) | 12.7 µM (inactive) | 15.7 µM (inactive) | 24.9 µM (inactive) | 16.7 µM (inactive) | 16.6 µM (inactive)
C=C1C(=O)O[C@H]2C1C[C@@H](O)[C@@]1(C)OC1CC[C@@]1(C)O[C@H]21 (stereo partly specified) | 32.8 µM (inactive) | 15.8 µM (inactive) | > 100 µM (inactive) | 15.3 µM (inactive) | 5.94 µM (inactive) | 21.1 µM (inactive) | – | 14.9 | 74.1 µM (inactive) | – | 34.7 µM (inactive) | 16.7 µM (inactive) | 17.2 µM (inactive) | – | 9.33 µM (inactive) | 11.6 µM (inactive) | 36.6 µM (inactive) | 5.62 µM (inactive)
CC(=O)OCC1=C(C)C(OC(=O)C(OC(C)=O)[C@@H](NC(=O)c2ccccc2)c2ccccc2)CCC1(C)C (stereo partly specified) | > 100 µM (inactive) | > 100 µM (inactive) | > 100 µM (inactive) | > 100 µM (inactive) | > 100 µM (inactive) | > 100 µM (inactive) | > 100 µM (inactive) | > 100 | 9.86 µM (inactive) | > 100 µM (inactive) | > 100 µM (inactive) | > 100 µM (inactive) | – | > 100 µM (inactive) | > 100 µM (inactive) | > 100 µM (inactive) | > 100 µM (inactive) | –
N#CC1=C(N)N(c2ccccc2)C(c2ccccc2)C1(C#N)C#N (stereo unspecified) | 15.7 µM (inactive) | 19.7 µM (inactive) | 17.1 µM (inactive) | 18.2 µM (inactive) | 12.3 µM (inactive) | 16.7 µM (inactive) | 16.7 µM (inactive) | 20.6 | 15.3 µM (inactive) | 19.3 µM (inactive) | 16.2 µM (inactive) | 20.9 µM (inactive) | – | 18 µM (inactive) | 6.05 µM (inactive) | 17.2 µM (inactive) | 17.8 µM (inactive) | 16.3 µM (inactive)
Cc1cc(=O)oc2c(CNC(C(=O)O)C(C)O)c(O)ccc12 (stereo unspecified) | > 100 µM (inactive) | > 100 µM (inactive) | > 100 µM (inactive) | > 100 µM (inactive) | > 100 µM (inactive) | > 100 µM (inactive) | – | > 100 | 8.89 µM (inactive) | > 100 µM (inactive) | > 100 µM (inactive) | > 100 µM (inactive) | > 100 µM (inactive) | > 100 µM (inactive) | > 100 µM (inactive) | > 100 µM (inactive) | > 100 µM (inactive) | > 100 µM (inactive)
Cc1ccc(C(=O)OC[C@H]2CC[C@@H](n3cc(N(C)C4CCCCC4)c(=O)[nH]c3=O)O2)cc1 | 18.5 µM (inactive) | 38.9 µM (inactive) | 20.2 µM (inactive) | 29.7 µM (inactive) | 30 µM (inactive) | 53.1 µM (inactive) | – | 24.5 | – | 23.7 µM (inactive) | 28.1 µM (inactive) | 31.4 µM (inactive) | – | 20.6 µM (inactive) | 38 µM (inactive) | 19.1 µM (inactive) | > 100 µM (inactive) | 24.3 µM (inactive)
CSc1ncnc2c1cnn2Cc1cn(COCCO)nn1 | 22.3 µM (inactive) | – | 64.1 µM (inactive) | 84.3 µM (inactive) | – | > 100 µM (inactive) | > 100 µM (inactive) | > 100 | – | 18.5 µM (inactive) | – | – | > 100 µM (inactive) | 64.7 µM (inactive) | 38.4 µM (inactive) | 33.9 µM (inactive) | 49.3 µM (inactive) | –
CC(NC(=N)N)C(=O)O (stereo unspecified) | > 100 µM (inactive) | > 100 µM (inactive) | > 100 µM (inactive) | > 100 µM (inactive) | > 100 µM (inactive) | > 100 µM (inactive) | > 100 µM (inactive) | > 100 | > 100 µM (inactive) | > 100 µM (inactive) | > 100 µM (inactive) | > 100 µM (inactive) | – | > 100 µM (inactive) | > 100 µM (inactive) | > 100 µM (inactive) | > 100 µM (inactive) | > 100 µM (inactive)
C[C@H](c1ccccc1)N1C(=O)[C@@H](OCc2ccccc2)[C@H]1[C@H](COC(=O)COCc1ccccc1)OCc1ccccc1 | – | > 100 µM (inactive) | > 100 µM (inactive) | > 100 µM (inactive) | 67.5 µM (inactive) | > 100 µM (inactive) | – | > 100 | 9.08 µM (inactive) | > 100 µM (inactive) | – | – | > 100 µM (inactive) | > 100 µM (inactive) | > 100 µM (inactive) | > 100 µM (inactive) | > 100 µM (inactive) | 86.9 µM (inactive)
c1ccc2c(c1)nc1n2sc2nc3ccccc3n21 | > 100 µM (inactive) | 54 µM (inactive) | > 100 µM (inactive) | 51.6 µM (inactive) | > 100 µM (inactive) | > 100 µM (inactive) | > 100 µM (inactive) | > 100 | – | – | > 100 µM (inactive) | > 100 µM (inactive) | > 100 µM (inactive) | – | > 100 µM (inactive) | > 100 µM (inactive) | > 100 µM (inactive) | 34.9 µM (inactive)
Cc1ccc(Cl)c2[nH]c(-c3ccccc3)cc(=O)c12 | 43.5 µM (inactive) | 6.41 µM (inactive) | 77.8 µM (inactive) | 48.2 µM (inactive) | 21.6 µM (inactive) | 39.7 µM (inactive) | – | 39.2 | 36.1 µM (inactive) | 22.3 µM (inactive) | 50.9 µM (inactive) | – | – | 78.3 µM (inactive) | 30.1 µM (inactive) | 40.9 µM (inactive) | 43.7 µM (inactive) | 57.1 µM (inactive)
S=C(c1c[nH]c2ccccc12)N1CCN(c2ccccc2)CC1 | 59.6 µM (inactive) | 19.4 µM (inactive) | 14.2 µM (inactive) | > 100 µM (inactive) | > 100 µM (inactive) | 86.9 µM (inactive) | > 100 µM (inactive) | > 100 | 0.403 µM (active) | > 100 µM (inactive) | 37.8 µM (inactive) | > 100 µM (inactive) | – | 75.3 µM (inactive) | > 100 µM (inactive) | > 100 µM (inactive) | > 100 µM (inactive) | –
CC(C)=C=CC(C)(C)NS(=O)(=O)NC(C)(C)C=C=C(C)C | 75.5 µM (inactive) | > 100 µM (inactive) | > 100 µM (inactive) | > 100 µM (inactive) | – | > 100 µM (inactive) | – | > 100 | 47.4 µM (inactive) | > 100 µM (inactive) | > 100 µM (inactive) | > 100 µM (inactive) | > 100 µM (inactive) | > 100 µM (inactive) | 19.8 µM (inactive) | > 100 µM (inactive) | > 100 µM (inactive) | 56.6 µM (inactive)
CCCCC(CCCC)=NNC(=S)SC | 33.6 µM (inactive) | 87.3 µM (inactive) | 29.6 µM (inactive) | 22 µM (inactive) | 18 µM (inactive) | 37.2 µM (inactive) | 42 µM (inactive) | 34.2 | 27.5 µM (inactive) | – | 19.2 µM (inactive) | – | 38.6 µM (inactive) | 40.6 µM (inactive) | 29.6 µM (inactive) | 36.4 µM (inactive) | 30.3 µM (inactive) | 17.1 µM (inactive)
Cc1nc2ccc(C(F)(F)F)cc2nc1NCc1ccc(Cl)c(Cl)c1 | 15 µM (inactive) | 14.1 µM (inactive) | 16.5 µM (inactive) | 3.28 µM (inactive) | 15.6 µM (inactive) | 18.4 µM (inactive) | 20.2 µM (inactive) | 12.7 | 12.9 µM (inactive) | 17.3 µM (inactive) | 17.2 µM (inactive) | 18.8 µM (inactive) | – | 14.4 µM (inactive) | 20.4 µM (inactive) | 15.4 µM (inactive) | 17.9 µM (inactive) | 14.8 µM (inactive)
CCOP(=O)(OCC)C1CC(O)C(=O)N1 (stereo unspecified) | > 100 µM (inactive) | > 100 µM (inactive) | > 100 µM (inactive) | > 100 µM (inactive) | > 100 µM (inactive) | > 100 µM (inactive) | – | > 100 | > 100 µM (inactive) | > 100 µM (inactive) | > 100 µM (inactive) | – | – | > 100 µM (inactive) | > 100 µM (inactive) | > 100 µM (inactive) | > 100 µM (inactive) | –
